Results reported in paper PMC6321058, “Crystal Structures and Cytotoxicity of ent-Kaurane-Type Diterpenoids from Two Aspilia Species” (Molecules, 2018).

Legend:
[1] = MTT cytotoxicity assay, Hep-G2; assay type: cell-based; conditions: human, cancer cell line Hep-G2, MTT, 0.19–100 μM
Description: (§1) Reagent and cells. Adenocarcinomic human alveolar basal epithelial (A549) and human hepatoma (HepG2) cancer cell lines, immortalized normal human liver (LO2), human bronchial epithelial (BEAS-2B), and fibroblast-like CCD19Lu cells were purchased from [NT], Manassas, VA, USA). The cells were cultured in RPMI-1640 medium supplemented with 10% fetal bovine serum and antibiotics: Penicillin (50 U/Ml) and streptomycin (50 μg/mL; Invitrogen, Paisley, Scotland, UK). All cells were incubated at 37 °C in a 5% humidified CO2 incubator). All test compounds were dissolved in DMSO at a final concentration of 50 mM and stored at -20 °C before use. […] Briefly, 5 × 10^3 cells per well were seeded in 96-well plates before drug treatments. […] Cells without drug treatment were used as controls. Subsequently, 10 μL of 5 mg/mL MTT solution was added to each well and incubated at 37 °C for 4 h, followed by the addition of 100 μL solubilization buffer (12 mM HCl in a solution of 10% SDS) and overnight incubation. The absorbance, A570 nm, was then determined in each well on the next day. The percentage cell viability was calculated using the expression: % Viability = Atreated/ Acontrol × 100, and was given as cytotoxicity in Table 3.

[2] = MTT cytotoxicity assay, A549; assay type: cell-based; conditions: human, cancer cell line A549, MTT, 0.19–100 μM
Description: as §1

[3] = MTT cytotoxicity assay, BEAS-2B; assay type: cell-based; conditions: human, normal cell line BEAS-2B, 0.19–100 μM
Description: as §1

[4] = MTT cytotoxicity assay, LO2; assay type: cell-based; conditions: human, normal cell line LO2, MTT, 0.19–100 μM
Description: as §1

[5] = BEAS-2B cells (human bronchial epithelial)
[6] = LO2 cells (immortalized normal human liver)

SMILES	IC50 at 72 h ([1]; HepG2 cells (human hepatoma)) [µM]	IC50 at 72 h [2] [µM]	IC50 at 72 h [3, 5] [µM]	IC50 at 72 h [4, 6] [µM]	IC50 at 72 h [1] [µM]	IC50 at 72 h [3] [µM]	IC50 at 72 h [4] [µM]	melting point [°C]
C=C1C2CCC3C4(C)CCCC(C)(C(=O)O)C4CCC3(C2)C1OC(=O)C(C)=CC (stereo not drawn) [Compound 7, 15α-angeloyloxy-ent-kaur-16-en-19-oic acid]	> 100	> 100	> 100	> 100	–	–	–	–
C=C1C2CCC3C4(C)CCCC(C)(C(=O)OC)C4CCC3(C2)C1OC(=O)C(C)=CC (stereo not drawn) [Compound 17, methyl-15α-angeloyloxy-ent-kaur-16-en-19-oate]	> 100	> 100	> 100	> 100	–	–	–	–
C=C1C[C@@]23CC[C@@H]4[C@](C)(C(=O)O)CCC[C@@]4(C)C2=CC[C@@H]1C3 [Compound 6, ent-kaur-9(11),16-dien-19-oic acid]	–	> 100	–	–	> 100	> 100	> 100	–
C=C1CC23CCC4C(C)(C(=O)OC)CCCC4(C)C2CCC1C3 (stereo not drawn) [Compound 10, methyl-ent-kaur-16-en-19-oate]	> 100	> 100	> 100	> 100	–	–	–	–
CC[C@H](/C=C/[C@@H](C)[C@H]1CC[C@H]2[C@@H]3CC=C4C[C@@H](O)CC[C@]4(C)[C@H]3CC[C@]12C)C(C)C [Compound 14, stigmasta-5,22(E)-dien-3β-ol]	–	> 100	–	–	> 100	> 100	> 100	–
C=C1C2CCC3(O)C4(C)CCCC(C)(C(=O)OC)C4CCC3(C2)C1OC(=O)C(C)=CC (stereo not drawn) [Compound 4, methyl-9β-hydroxy-15α-angeloyloxy-ent-kaur-16-en-19-oate]	> 100	> 100	> 100	> 100	–	–	–	–
CO[C@@]1(C)C[C@@]23CC[C@@H]4[C@](C)(C(=O)O)CCC[C@@]4(C)C2=CC[C@@H]1C3 [Compound 6a]	> 100	> 100	> 100	> 100	–	–	–	–
C=C1CC23CCC4C(C)(C(=O)O)CCCC4(C)C2=CC(=O)C1C3 (stereo not drawn) [Compound 18, 12-oxo-ent-kaur-9(11),16-dien-19-oic acid]	–	80.5 ± 1.8	–	–	81.3 ± 0.3	38.6 ± 2.5	30 ± 1.7	–
C=C1CC23CCC4C(C)(C(=O)O)CCCC4(C)C2CCC1C3 (stereo not drawn) [Compound 11, ent-kaur-16-en-19-oic acid]	> 100	> 100	> 100	> 100	–	–	–	–
CC(=O)O[C@H]1C(=O)[C@@]2(C)[C@H]([C@H](OC(=O)c3ccccc3)[C@]3(O)C[C@H](OC(=O)[C@H](O)[C@@H](NC(=O)c4ccccc4)c4ccccc4)C(C)=C1C3(C)C)[C@]1(OC(C)=O)CO[C@@H]1C[C@@H]2O [Paclitaxel, reference compound]	0.19	0.0033	< 0.1	< 0.1	–	–	–	–
C=C1C2CCC3(O)C4(C)CCCC(C)(C(=O)O)C4CCC3(C2)C1OC(=O)C(C)=CC (stereo not drawn) [Compound 3, 9β-hydroxy-15α-angeloyloxy-ent-kaur-16-en-19-oic acid]	24.7 ± 2.8	> 100	89.9 ± 2	57.2 ± 1.2	–	–	–	–
C=C1CC23CCC4C(C)(C(=O)O)CCCC4(C)C2=CC(OC)C1C3 (stereo not drawn) [Compound 1, 12α-methoxy-ent-kaur-9(11),16-dien-19-oic acid]	–	> 100	–	–	27.3 ± 1.9	> 100	> 100	184 to 186
CC=C(C)C(=O)OC1C23CCC4C(C)(C(=O)O)CCCC4(C)C2CCC(C3)C12CO2 (stereo not drawn) [Compound 5, 15α-angeloyloxy-16β,17-epoxy-ent-kauran-19-oic acid]	> 100	30.7 ± 1.7	> 100	> 100	–	–	–	242 to 243
C[C@@H]1C[C@@]23CC[C@@H]4[C@](C)(C(=O)O)CCC[C@@]4(C)C2=CC[C@@H]1C3 [Compound 6b, ent-kaur-9(11)-en-19-oic acid]	> 100	> 100	> 100	> 100	–	–	–	–
C[C@@]12CCC[C@@](C)(C(=O)O)[C@H]1CC[C@@]13C[C@@H](CC[C@H]12)[C@](C)(O)C3 [Compound 2, (16R)-hydroxy-ent-kauran-19-oic acid]	–	> 100	–	–	> 100	> 100	> 100	–
C=C1C[C@@]23CC[C@@H]4C(C)(C)CCC[C@@]4(C)C2=CC(=O)C1C3 [Compound 9, ent-kaur-9(11),16-dien-12-one]	> 100	> 100	> 100	75.3 ± 2.8	–	–	–	–
